Each structure is given as a SMILES string.

One assay has as its target T1, GPR6 (Homo sapiens, UniProt P46095).
T1 construct: expressed in transfected cells; host or cells: CHO cells
The experiment in a line: GPR6 antagonist functional cAMP assay (LANCE Ultra cAMP TR-FRET, CHO cells stably expressing GPR6). Format: cell-based. In outline:
(§1)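 Cells in Krebs-Ringer buffer with 0.1% BSA and 150 μM Ro 20-1724 PDE inhibitor were exposed to compounds for 45 min at 37 °C (0.1% DMSO). cAMP was read by TR-FRET at 665 nm; IC50s came from 4-parameter fits normalized to DMSO and reference compound.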

The next assay deals with T2, GPR3 (Homo sapiens, UniProt P46089).
T2 construct: expressed in transfected cells; host or cells: CHO cells
T2 sequence (P46089 whole entry, species assumed): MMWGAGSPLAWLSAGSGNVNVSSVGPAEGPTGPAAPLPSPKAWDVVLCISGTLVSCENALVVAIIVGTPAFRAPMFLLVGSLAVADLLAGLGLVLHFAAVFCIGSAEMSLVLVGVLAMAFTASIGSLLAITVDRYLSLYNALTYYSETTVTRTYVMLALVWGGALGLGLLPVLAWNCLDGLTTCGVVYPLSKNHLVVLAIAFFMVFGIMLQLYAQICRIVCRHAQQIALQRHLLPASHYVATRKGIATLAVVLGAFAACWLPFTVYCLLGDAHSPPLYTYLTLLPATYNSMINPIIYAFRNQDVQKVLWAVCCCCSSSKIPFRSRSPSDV
The experiment in a line: GPR3 antagonist functional cAMP assay (LANCE Ultra cAMP TR-FRET, CHO cells stably expressing GPR3). It counts as cell-based. In short, it runs like this: as §1

Where [1] appears, read: CHO cells stably expressing GPR6, cAMP assay (Example 24).
Setting [2] is: CHO cells stably expressing GPR3, cAMP assay (Example 24).
[3] abbreviates: CHO cells stably expressing GPR6, cAMP assay.
Where [4] appears, read: CHO cells stably expressing GPR3, cAMP assay.
Where [5] appears, read: procedure as described in Example 24.

T1 sequence (P46095 whole entry): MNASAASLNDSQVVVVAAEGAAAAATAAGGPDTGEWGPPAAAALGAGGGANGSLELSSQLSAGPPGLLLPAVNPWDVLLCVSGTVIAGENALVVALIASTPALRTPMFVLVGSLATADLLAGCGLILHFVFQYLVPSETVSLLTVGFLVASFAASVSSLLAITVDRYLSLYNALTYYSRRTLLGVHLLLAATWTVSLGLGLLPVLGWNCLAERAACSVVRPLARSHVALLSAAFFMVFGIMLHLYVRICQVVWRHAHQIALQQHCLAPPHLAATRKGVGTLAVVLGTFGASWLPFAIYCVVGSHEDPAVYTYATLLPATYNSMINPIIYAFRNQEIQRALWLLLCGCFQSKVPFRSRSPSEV

As for `Cc1nccc2nc(N3CCC(Oc4ccc(F)cc4F)CC3)c(-c3cnn(C)c3)nc12` [Compound 487, 4-(2,4-difluorophenoxy)-1-[5-methyl-3-(1-methyl-1H-pyrazol-4-yl)pyrido[3,4-b]pyrazin-2-yl]piperidine], the 50% inhibitory concentration (IC50) against GPR6 (setting [1]) is < 100 nM; against GPR3 (setting [2]), 1 to 30 µM.
For `Cn1cc(-c2nc3cnc([C@@H](O)C(C)(C)O)cc3nc2N2CCN(Cc3ccc(F)cc3F)CC2)cn1` (single isomer, unassigned) [Compound 261] the same measures were 100 to 1000 nM and 1 to 30 µM.
Turning to `Cn1cc(-c2nc3cnc([C@](C)(O)C(C)(C)O)cc3nc2N2CCC(Oc3ccc(F)cc3F)CC2)cn1` (single isomer, unassigned) [Compound 673], the IC50 against GPR6 (procedure of Example 24) was in the range of 100 to 1000 nM; against GPR3 (procedure of Example 24), 1 to 30 µM.
For `CC(=O)N1CCc2nc(N3CCC(Oc4cc(F)ccc4F)C3)c(-c3cnn(C)c3)nc2C1` (centres unmarked) [Compound 342, 1-{2-[3-(2,5-difluorophenoxy)pyrrolidin-1-yl]-3-(1-methyl-1H-pyrazol-4-yl)-5H,6H,7H,8H-pyrido[3,4-b]pyrazin-6-yl}ethan-1-one] the same measures were 1000 to 30000 nM and 0.1 to 1 µM.
`CCn1cc(-c2nc3c(nc2N2CCN(C(=O)c4ccc(Cl)c(C)c4)CC2)CCN(C(C)=O)C3)cn1` [Compound 550, 1-{2-[4-(4-chloro-3-toluoyl)-1-piperazinyl]-3-(1-ethyl-4-pyrazolyl)-5,6,7,8-tetrahydro-1,4,6-triaza-6-naphthyl}-1-ethanone]: the values for the IC50 against GPR6 (setting [3]) and at GPR3 (setting [4]) were 1000 to 30000 nM and 1 to 30 µM, respectively.
For `CC(C)(O)C(O)c1cc2nc(-c3cnn(C(F)F)c3)c(N3CCC(Oc4ccc(F)cc4F)CC3)nc2cn1` (single isomer, unassigned) [Compound 584] the same measures were < 100 nM and 1 to 30 µM.
For `CC(=O)N1CCc2nc(N3CC[C@H](Oc4ccc(F)cc4F)[C@@H](F)C3)c(-c3cnn(C)c3)nc2C1` (single isomer, unassigned) [Compound 331], the 50% inhibitory concentration (IC50) against GPR6 (procedure of Example 24) was 1000 to 30000 nM; at GPR3 (procedure of Example 24), 1 to 30 µM.
Regarding `CC(=O)N1CCc2nc(N3CCN(C(O)c4cocn4)CC3)c(-c3cnn(C)c3)nc2C1` (centres unmarked) [Compound 523, 1-(2-{4-[hydroxy(1,3-oxazol-4-yl)methyl]-1-piperazinyl}-3-(1-methyl-4-pyrazolyl)-5,6,7,8-tetrahydro-1,4,6-triaza-6-naphthyl)-1-ethanone], the IC50 is ≥ 30000 nM against GPR6 (setting [3]) and ≥ 30 µM on GPR3 (setting [4]).
For `Cn1cc(-c2nc3cnccc3nc2N2CC(Oc3ccc(F)cc3F)C2)cn1` [Compound 327, 4-{2-[3-(2,4-difluorophenoxy)azetidin-1-yl]pyrido[3,4-b]pyrazin-3-yl}-1-methyl-1H-pyrazole], the IC50 is 1000 to 30000 nM against GPR6 (procedure of Example 24) and 1 to 30 µM on GPR3 (procedure of Example 24).
For `COc1ccc(OC2CCN(c3nc4c(nc3-c3cnn(C)c3)CN(C(C)=O)CC4)CC2)c(OC)c1` [Compound 426, 1-{2-[4-(2,4-dimethoxyphenoxy)piperidin-1-yl]-3-(1-methyl-1H-pyrazol-4-yl)-5H,6H,7H,8H-pyrido[3,4-b]pyrazin-6-yl}ethan-1-one], the half-maximal inhibitory concentration (IC50) is 1000 to 30000 nM against GPR6 (setting [1]) and 1 to 30 µM against GPR3 (setting [2]).
Turning to `CC(=O)N1CCc2nc(N3CCC(Oc4ccc(F)cc4F)CC3)c(-c3cncnc3)nc2C1` [Compound 34, 1-{2-[4-(2,4-difluorophenoxy)piperidin-1-yl]-3-(pyrimidin-5-yl)-5H,6H,7H,8H-pyrido [3,4-b]pyrazin-6-yl}ethan-1-one], the 50% inhibitory concentration (IC50) at GPR6 (setting [5]) was in the range of 1000 to 30000 nM; at GPR3 (setting [5]), 1 to 30 µM.
For `CO[C@H](CO)c1cc2nc(N3CCC(Oc4ccc(F)cc4F)CC3)c(-c3cnn(C)c3)nc2cn1` (single isomer, unassigned) [Compound 641], the IC50 fell in the range of 100 to 1000 nM against GPR6 (procedure of Example 24) and 1 to 30 µM against GPR3 (procedure of Example 24).
For `COC[C@H](O)c1cc2nc(N3CCC(Oc4ccc(F)cc4F)CC3)c(-c3cnn(C)c3)nc2cn1` (single isomer, unassigned) [Compound 643] the same measures were < 100 nM and 1 to 30 µM.
Turning to `CC(C)(O)C(O)c1cc2nc(-c3cnn(C(F)F)c3)c(N3CCN(Cc4ccccc4F)CC3)nc2cn1` (single isomer, unassigned) [Compound 668, 1-{2-[1-(difluoromethyl)-4-pyrazolyl]-3-{4-[(o-fluorophenyl)methyl]-1-piperazinyl}-1,4,6-triaza-7-naphthyl}-2-methyl-1,2-propanediol], the 50% inhibitory concentration (IC50) at GPR6 (procedure of Example 24) is < 100 nM; against GPR3 (procedure of Example 24), 1 to 30 µM.
Take `CC(=O)N1CCc2nc(N3CCN(C(=O)c4ccc(F)cc4F)CC3)c(-c3cnn(C)c3)nc2C1` [Compound 630, 1-{2-[4-(2,4-difluorobenzoyl)-1-piperazinyl]-3-(1-methyl-4-pyrazolyl)-5,6,7,8-tetrahydro-1,4,6-triaza-6-naphthyl}-1-ethanone]: the concentration for half-maximal inhibition (IC50) at GPR6 (procedure of Example 24) was 1000 to 30000 nM; at GPR3 (procedure of Example 24), ≥ 30 µM.
Regarding `CC(=O)N1CCc2nc(N3CCN(Cc4ccccc4Br)CC3)c(-c3cnn(C)c3)nc2C1` [Compound 508, 1-(2-{4-[(o-bromophenyl)methyl]-1-piperazinyl}-3-(1-methyl-4-pyrazolyl)-5,6,7,8-tetrahydro-1,4,6-triaza-6-naphthyl)-1-ethanone], the IC50 at GPR6 (setting [3]) is 100 to 1000 nM; at GPR3 (setting [4]) it was 1 to 30 µM.
With `Cn1cc(-c2nc3cc(Cl)ncc3nc2N2CCN(Cc3ccc(F)cc3F)CC2)cn1` [Compound 227, 1-[7-chloro-2-(1-methyl-1H-pyrazol-4-yl)pyrido[3,4-b]pyrazin-3-yl]-4-[(2,4-difluorophenyl)methyl] piperazine], the IC50 is 100 to 1000 nM against GPR6 (setting [1]) and 1 to 30 µM on GPR3 (setting [2]).
For `CC(=O)N1CCc2nc(N3CCC(Oc4ccc(F)cc4F)CC3)c(-c3cccc(F)n3)nc2C1` [Compound 57, 1-{2-[4-(2,4-difluorophenoxy)piperidin-1-yl]-3-(6-fluoropyridin-2-yl)-5H,6H,7H,8H-pyrido[3,4-b]pyrazin-6-yl}ethan-1-one] the same measures were 1000 to 30000 nM and 1 to 30 µM.
With `Nc1cc2nc(-c3cnn(CF)c3)c(N3CCN(Cc4ccc(F)cc4F)CC3)nc2cn1` [Compound 794, 3-{4-[(2,4-difluorophenyl)methyl]-1-piperazinyl}-2-[1-(fluoromethyl)-4-pyrazolyl]-1,4,6-triaza-7-naphthylamine], the IC50 on GPR6 (procedure of Example 24) fell in the range of 100 to 1000 nM; against GPR3 (procedure of Example 24) it was 1 to 30 µM.
Consider `CCn1cc(-c2nc3cnc(C(C)(O)C(C)(C)O)cc3nc2N2CCN(Cc3ccc(F)cc3F)CC2)cn1` (centres unmarked) [Compound 654, 2-(2-{4-[(2,4-difluorophenyl)methyl]-1-piperazinyl}-3-(1-ethyl-4-pyrazolyl)-1,4,6-triaza-7-naphthyl)-3-methyl-2,3-butanediol], for which the results for the half-inhibitory concentration (IC50) against GPR6 (procedure of Example 24) and against GPR3 (procedure of Example 24) were 100 to 1000 nM and 1 to 30 µM, respectively.
For `CCn1cc(-c2nc3cnccc3nc2N2CCC(Oc3cc(Cl)ccc3Cl)CC2)cn1` [Compound 288, 4-(2,5-dichlorophenoxy)-1-[3-(1-ethyl-1H-pyrazol-4-yl)pyrido[3,4-b]pyrazin-2-yl]piperidine] the same measures were < 100 nM and 1 to 30 µM.
For the molecule `CC(=O)N1CCc2nc(N3CCC(Oc4cccc(F)c4)CC3)c(-c3cnn(C)c3)nc2C1` [Compound 393, 1-{2-[4-(3-fluorophenoxy)piperidin-1-yl]-3-(1-methyl-1H-pyrazol-4-yl)-5H,6H,7H,8H-pyrido[3,4-b]pyrazin-6-yl}ethan-1-one], the results for the half-inhibitory concentration (IC50) against GPR6 (setting [1]) and on GPR3 (setting [2]) were 1000 to 30000 nM and 1 to 30 µM, respectively.
Take `CC(=O)N1CCc2nc(N3CCC(Oc4c(F)cccc4F)CC3)c(-c3cnn(C)c3)nc2C1` [Compound 454, 1-{2-[4-(2,6-difluorophenoxy)piperidin-1-yl]-3-(1-methyl-1H-pyrazol-4-yl)-5H,6H,7H,8H-pyrido[3,4-b]pyrazin-6-yl}ethan-1-one]: the figures for the IC50 at GPR6 (setting [1]) and against GPR3 (setting [2]) were 1000 to 30000 nM and 1 to 30 µM, respectively.
For `O=C(N1CCc2nc(N3CCC(Oc4ccc(F)cc4F)CC3)c(-c3cn[nH]c3)nc2C1)N1CC(O)C1` [Compound 206, 1-{2-[4-(2,4-difluorophenoxy)piperidin-1-yl]-3-(1H-pyrazol-4-yl)-5H,6H,7H,8H-pyrido[3,4-b]pyrazine-6-carbonyl}azetidin-3-ol] the same measures were 100 to 1000 nM and 1 to 30 µM.
On to `CC(=O)N1CCc2nc(N3CCC(Oc4ccc(Cl)cc4F)CC3)c(-c3cnn(C)c3)nc2C1` [Compound 456, 1-{2-[4-(4-chloro-2-fluorophenoxy)piperidin-1-yl]-3-(1-methyl-1H-pyrazol-4-yl)-5H,6H,7H,8H-pyrido[3,4-b]pyrazin-6-yl}ethan-1-one], for which the values for the IC50 at GPR6 (setting [1]) and against GPR3 (setting [2]) were 100 to 1000 nM and 1 to 30 µM, respectively.
`CC(=O)N1CCc2nc(N3CCN(C(=O)c4ccc(Cl)cc4)CC3)c(-c3cnn(C)c3)nc2C1` [Compound 538, 1-{2-[4-(p-chlorobenzoyl)-1-piperazinyl]-3-(1-methyl-4-pyrazolyl)-5,6,7,8-tetrahydro-1,4,6-triaza-6-naphthyl}-1-ethanone]: the concentration for half-maximal inhibition (IC50) is 100 to 1000 nM against GPR6 (setting [3]) and 1 to 30 µM against GPR3 (setting [4]).
For `O=S(=O)(C1COC1)N1CCc2nc(N3CCC(Oc4ccc(F)cc4F)CC3)c(-c3cn[nH]c3)nc2C1` [Compound 207, 4-(2,4-difluorophenoxy)-1-[6-(oxetane-3-sulfonyl)-3-(1H-pyrazol-4-yl)-5H,6H,7H,8H-pyrido[3,4-b]pyrazin-2-yl]piperidine], the concentration for half-maximal inhibition (IC50) against GPR6 (setting [1]) was in the range of 1000 to 30000 nM; against GPR3 (setting [2]), 1 to 30 µM.
In the case of `CCn1cc(-c2nc3c(nc2N2CCC(Oc4ccc(F)cc4F)CC2)CCN(C(=O)C(C)(O)CO)C3)cn1` (centres unmarked) [Compound 519, 1-{2-[4-(2,4-difluorophenoxy)-1-piperidyl]-3-(1-ethyl-4-pyrazolyl)-5,6,7,8-tetrahydro-1,4,6-triaza-6-naphthyl}-2,3-dihydroxy-2-methyl-1-propanone], the IC50 lay within 100 to 1000 nM against GPR6 (setting [3]) and 1 to 30 µM against GPR3 (setting [4]).

(Values after patent publication US20260042755A1, “GPR6 INVERSE AGONISTS” (MapLight Therapeutics, Inc., priority 2022, published 2026).)
